# According to ChEMBL document CHEMBL3045559, “Natural-product-based chromenes as a novel class of potential termiticides” (2011):
# Assays:
# Type in all cases: functional
# Coptotermes formosanus [1] = assay: Termiticidal activity against Coptotermes formosanus (third-instar worker and soldier) assessed as mortality at 1% wt/wt at 26.6 degC, 100% RH measured after 15 days (Rvb= 1.3 +/- 2.5 to 5 +/- 4.1%)
# Coptotermes formosanus [2] = assay: Termiticidal activity against Coptotermes formosanus (third-instar worker and soldier) assessed as mortality at 1% wt/wt at 26.6 degC, 100% RH measured after 18 days (Rvb= 1.3 +/- 2.5%)
# Coptotermes formosanus [3] = assay: Termiticidal activity against Coptotermes formosanus (third-instar worker and soldier) assessed as mortality at 1% wt/wt at 26.6 degC, 100% RH measured after 8 days (Rvb= 1.3 +/- 2.5%)
# Coptotermes formosanus [4] = assay: Termiticidal activity against Coptotermes formosanus (third-instar worker and soldier) assessed as mortality at 1% wt/wt at 26.6 degC, 100% RH measured after 4 days (Rvb= 0%)
# Coptotermes formosanus [5] = assay: Termiticidal activity against Coptotermes formosanus (third-instar worker and soldier) assessed as mortality at 1% wt/wt at 26.6 degC, 100% RH measured after 1 day (Rvb= 0%)
# Coptotermes formosanus [6] = assay: Termiticidal activity against Coptotermes formosanus (third-instar worker and soldier) assessed as mortality at 1% wt/wt at 26.6 degC, 100% RH measured after 11 days (Rvb= 1.3 +/- 2.5%)
# Coptotermes formosanus [7] = assay: Termiticidal activity against Coptotermes formosanus (third-instar worker and soldier) assessed as mortality at 1% wt/wt at 26.6 degC, 100% RH measured after 21 days (Rvb= 1.3 +/- 2.5%)
# Coptotermes formosanus [8] = assay: Termiticidal activity against Coptotermes formosanus (third-instar worker and soldier) assessed as mortality at 0.5% wt/wt at 26.6 degC, 100% RH measured after 5 days
# Coptotermes formosanus [9] = assay: Termiticidal activity against Coptotermes formosanus (third-instar worker and soldier) assessed as mortality at 1% wt/wt at 26.6 degC, 100% RH measured after 9 days (Rvb= 3.8 +/- 4.8%)
# Coptotermes formosanus [10] = assay: Termiticidal activity against Coptotermes formosanus (third-instar worker and soldier) assessed as mortality at 1% wt/wt at 26.6 degC, 100% RH measured after 21 days (Rvb= 1.3 +/- 2.5 to 5 +/- 4.1%)
# Coptotermes formosanus [11] = assay: Termiticidal activity against Coptotermes formosanus (third-instar worker and soldier) assessed as mortality at 1% wt/wt at 26.6 degC, 100% RH measured after 7 days (Rvb= 3.8 +/- 4.8%)
# Coptotermes formosanus [12] = assay: Termiticidal activity against Coptotermes formosanus (third-instar worker and soldier) assessed as mortality at 1% wt/wt at 26.6 degC, 100% RH measured after 17 days (Rvb= 5 +/- 4.1%)
# Coptotermes formosanus [13] = assay: Termiticidal activity against Coptotermes formosanus (third-instar worker and soldier) assessed as mortality at 1% wt/wt at 26.6 degC, 100% RH measured after 3 days (Rvb= 0%)
Structure (SMILES),mortality (Coptotermes formosanus [1]) [%],mortality (Coptotermes formosanus [2]) [%],mortality (Coptotermes formosanus [3]) [%],mortality (Coptotermes formosanus [4]) [%],mortality (Coptotermes formosanus [5]) [%],mortality (Coptotermes formosanus [6]) [%],mortality (Coptotermes formosanus [7]) [%],mortality (Coptotermes formosanus [8]) [%],mortality (Coptotermes formosanus [9]) [%],mortality (Coptotermes formosanus [10]) [%],mortality (Coptotermes formosanus [11]) [%],mortality (Coptotermes formosanus [12]) [%],mortality (Coptotermes formosanus [13]) [%]
CC1(C)C=Cc2ccc(CO)cc2O1,100,100,100,100,26.3,100,100,–,–,–,–,–,–
CC1(C)C=Cc2c(CO)cccc2O1,100,100,100,100,41.3,100,100,100,–,–,–,–,–
COC(=O)c1ccc2c(c1)OC(C)(C)C=C2,100,100,100,100,32.5,100,100,–,–,–,–,–,–
COC(=O)c1cccc2c1C=CC(C)(C)O2,100,100,97.5,87.5,0,100,100,–,–,–,–,–,–
CNCCc1ccc2c(c1)C=CC(C)(C)O2.Cl,2.5,2.5,0,0,0,1.3,3.8,–,–,–,–,–,–
CC(C)NCc1ccc2c(c1)C=CC(C)(C)O2.Cl,80,88.8,55,20,8.8,72.5,88.8,–,–,–,–,–,–
CC(C)NCCc1ccc2c(c1)C=CC(C)(C)O2.Cl,7.5,8.8,3.8,3.8,3.75,5,15,–,–,–,–,–,–
CC1(C)C=Cc2cc(CCO)ccc2O1,70,71.3,33.8,10,0,56.3,73.8,–,–,–,–,–,–
COC(=O)Cc1ccc2c(c1)C=CC(C)(C)O2,100,100,92.5,82.5,12.5,100,100,–,–,–,–,–,–
CC1(C)C=Cc2cc(C=O)ccc2O1,98.8,98.8,81.3,62.5,51.3,93.8,98.8,–,–,–,–,–,–
COC(=O)c1ccc(OC)c2c1OC(C)(C)C=C2,96.3,–,–,–,0,–,–,100,61.3,100,30,100,2.5
CC(=O)c1ccc2c(c1O)C=CC(C)(C)O2,100,–,–,–,0,–,–,100,98.8,100,66.3,100,1.3
CC(C)CC(=O)N(C)CCC1=CC2C=CC(C)(C)OC2C=C1 (configuration not stated),32.5,32.5,32.5,32.5,6.3,32.5,32.5,–,–,–,–,–,–
CC1(C)C=Cc2cc(C(=O)O)ccc2O1,1.3,1.3,0,0,0,0,2.5,–,–,–,–,–,–
COC(=O)c1ccc2c(c1)C=CC(C)(C)O2,100,100,100,92.5,3.75,100,100,–,–,–,–,–,–
"CC1(C)C=Cc2cc3c(cc2O1)OCO3 [6,6-DIMETHYL-6H-[1,3]DIOXOLO[4,5-G]CHROMENE]",75,–,–,–,0,–,–,–,23.8,85,12.5,82.5,2.5
CC1(C)C=Cc2cc(CO)ccc2O1 [EULATACHROMENE],100,100,92.5,40,1.3,100,100,–,–,–,–,–,–
